We go through 3 compounds from patent US11149006B2, “Compounds as neurokinin-1 receptor antagonists and uses thereof” (XW LABORATORIES INC., priority 2018, dated 2021).

Data set [1] relates to cisplatin-induced emesis in ferrets. Description: Cisplatin-induced acute and delayed emesis in the ferret. The format is in vivo. The following applies: for reduction of retching+vomiting, entire delayed phase: delayed phase 24-72 h. The protocol:
To investigate the anti-emetic potential of Compound I by preventing cisplatin-induced acute and delayed emesis in the ferret. Aprepitant was used as a positive control in this study.
40 castrated male ferrets weighing between 1.2 and 2.3 kg were used, which were obtained from Wuxi Sangosho Biotechnology Co. Ltd. (Wuxi, Jiangsu, China) and housed in groups of 2-3 at 24±1° C. with at 50±5% humidity. Artificial lighting was provided between 06:00 to 18:00 h. Water and dry pelleted cat chow were given ad libitum, unless otherwise stated. All experiments were conducted under license from the Government of the Hong Kong SAR and the Animal Experimentation Ethics Committee, The Chinese University of Hong Kong.
Compound I and aprepitant were supplied by XW Laboratories, Inc, China and were dissolved in distilled water. Cisplatin (Lot #MKBR1947V) was from Sigma-Aldrich, St. Louis, USA, and was dissolved in 0.9% w/v saline adjusted to pH 4 with 0.1N HCl. Doses were expressed as the free base, unless otherwise stated.
On the day of the experiment, groups of ferrets were administered Compound I (0.1, 0.3, 1 mg/kg, p.o.), aprepitant (1 mg/kg, p.o.), or distilled water (vehicle control, 1 mL/kg, p.o.) 2 h before cisplatin (5 mg/kg, i.p.) and then the treatments were continued at 24 h intervals (at 24 and 48 h post cisplatin). Emesis was characterized by rhythmic abdominal contractions that were either associated with the forceful oral expulsion of solid or liquid material from the gastrointestinal tract (i.e., vomiting), or not associated with the passage of material (i.e., retching movements). Consecutive episodes of retching and/or vomiting were considered separate when the animal changed its location in the observation cage, or when the interval between episodes exceeded 5 seconds.
GraphPad Prism 8 (GraphPad Software, La Jolla, Calif., United States) was used to perform statistical comparisons. Animal emesis behaviours like retching and vomiting were analyzed using a one-way analysis of variance followed by Tukey's multiple comparisons tests. The results are expressed as the mean±SEM. In all cases, differences between treatment groups were considered significant when the p value was less than 0.05.

Data set [2] has as its target human NK-2 receptor (NK-2/HEK293) (Homo sapiens (Human), UniProt P21452). Description: NK-2 calcium flux FLIPR antagonist assay. The format is cell-based. The following applies: for inhibition at 10 µM: HEK293, NK-2, max dose 10000 nM; for IC50: NK-2 FLIPR antagonist mode. As to the method:
(§1) The potential antagonist activity of Compound I and IV on human NK-1/2/3 receptor was evaluated by calcium flux FLIPR assay. The results are shown in the following Table 2, while the NK-1 fitting dose-response curves for Compound I and IV are shown in FIGS. 2A and 2B, respectively.
(§2) 1. NK-1, NK-2 and NK-3 Calcium Flux FLIPR assays:
(§3) Materials: Cell Lines: NK-1/HEK293, NK-2/HEK293, NK-3/HEK293. Media: DMEM, Invitrogen (Cat #11960), FBS, Corning (Cat #35-076-CV), G418, Invitrogen (Cat #10131-027), and Blasticidin, Invitrogen (Cat #A11139). Reagent: Fluo-4 Direct, (Invitrogen, Cat #F10471).
(§4) Experimental procedure for NK-1, NK-2 and NK-3 calcium flux FLIPR assay: Perform the assay in the following steps: 1) Cell preparation: thaw each cell (NK-1, NK-2 and NK-3) in 37° C. water bath with gentle shaking, transfer cell suspensions to 50 mL conical tubes and add plating media to 45 mL mark. Count cells using a ViCell for concentration. Re-suspend the cells in the growth media to a concentration of 10×10^5 per mL. Add 20 μL per well of the cell suspension to the 384-well plates (20,000 cells/well). Place the cells at 37° C. 5% CO2 incubator overnight. 2) Calcium Flux FLIPR assay: a) Prepare Probenecid reagent by adding 1 mL FLIPR Assay Buffer to 77 mg probenecid to make 250 mM solution. b) Prepare assay reagent (2×8 μM Fluo-4 Direct™ Loading Buffer): Thaw one vial of Fluo-4 Direct™ crystals, add 10 mL of FLIPR Assay Buffer to the Vial; add 0.2 mL of Probenecid to each 10 mL vial of Fluo-Direct. c) Compounds preparation: The compounds are serially diluted in 100% DMSO 1:3 for 10 pts by Echo. Then dispense 900 nL of compounds to the 384-compound plate. Remove cell plate from incubator and gently dispense 20 μL of 2×Fluo-4 Direct™ to 384 well cell culture plate. Incubate for 50 min at 37° C. 5% CO2 and 10 min at room temperature. Remove cell plate from incubator and place it into FLIPR (Molecular Devices). Place compound plate and tip box into FLIPR. For the dose response curve (DRC) plate: a) Run the Protocol on FLIPRTETRA. b) Transfer 10 μL of assay buffer from 384-well plate to the cell plates. c) Read fluorescence signal. d) Transfer 10 μL of the compounds from the DRC plate to the cell plates. e) Read fluorescence signal. f) Calculate the “Max-Min” starting from Read 90 to Maximum allowed. […] For the compound plate in antagonist test: a) Run the Protocol on FLIPRTETRA. b) Transfer 10 μL of references and compounds from the compound plate to the cell plates. c) Read fluorescence signal. d) Transfer 10 μL of 6×EC80 concentrations of agonist reference compounds to the cell plates. e) Read fluorescence signal. f) For antagonist test, calculate the “Max-Min” starting from Read 90 to Maximum allowed. h) Analyze the data using GraphPad Prism 5.0.
Background: Calcium assays in cells follow changes in intracellular calcium, usually with a dye or a luminescent sensor.

Data set [3] concerns the target human NK-3 receptor (NK-3/HEK293) (Homo sapiens (Human), UniProt P29371). Description: NK-3 calcium flux FLIPR antagonist assay. The format is cell-based. The following applies: for inhibition at 10 µM: HEK293, NK-3, max dose 10000 nM; for IC50: NK-3 FLIPR antagonist mode. The protocol:
as §1, §2, §3, §4

Data set [4] has as its target human NK-1 receptor (NK-1/HEK293) (Homo sapiens (Human), UniProt P25103). Description: NK-1 calcium flux FLIPR antagonist assay. The class given is cell-based. The settings on record: for inhibition at 10 µM: HEK293, NK-1, max dose 10000 nM; for IC50: NK-1 FLIPR antagonist mode. The protocol:
as §1, §2, §3, §4

The target in data set [5] is human NK-1 receptor (Homo sapiens (Human), UniProt P25103). Description: Tag-Lite Tachykinin NK-1 receptor competitive binding assay (TR-FRET). The settings on record: Tag-Lite NK-1 labeled cells, read-out: IC50 on hNK-1 receptor. The protocol: Human Tachykinin NK-1 receptor binding assay was performed using CisBio's Tag-Lite® Ligand binding assay. The homogeneous binding assay employees the time resolved fluorescence energy transfer (TR-FRET) technology. The potential inhibitory effect of Compound I and V on human NK-1 receptor was evaluated by TagLite® Tachykinin NK-1 receptor binding assay.
1. Tag-Lite® Tachykinin NK-1 receptor binding assay.
Materials: Tag-Lite® Tachykinin NK-1 labeled Cells, Tachykinin NK-1 Receptor red agonist Fluorescent Ligand (10 μMx50 μL), Tag-Lite Buffer (TLB) (5×concentration) (CisBio, Redford, Mass., U.S.A). [Sar9, Met(O2)11]-Substance P-Polypeptides (Tocris, Bristol, UK).
2. Competitive binding (Ki determination): Competitive binding assay measures the dissociation constant, To perform the assay, the compound is titrated into a solution containing a fixed concentration of fluorescent ligand and a fixed amount of cells.
Experimental procedure for competitive binding (Ki determination): Perform CisBio's Tag-Lite® Tachykinin NK-1 binding assay according to manufacturer's protocol. […] Incubate 2 h at room temperature, read the Signal665nm and Signal620nm using Evision. Data analysis was performed by calculating the Ratio following the formula below, the competitive binding data for each compound was analyzed with GraphPad Prism 5.0, and IC50 value was calculated for each compound.
Background: In TR-FRET formats the signal depends on donor and acceptor labels being close together.

Data set [6] can be described thus: Rat pharmacokinetic study. The format is in vivo, male Sprague-Dawley rats. The following applies: male, Sprague-Dawley, plasma. The protocol: For rat pharmacokinetic studies, male Sprague-Dawley rats were housed individually and fasted overnight before use. For Compound I and reference compound CP-122721, a single dose was administered to each rat in two groups (n=5/group) via intravenous (i.v.) administration at 4 mg/kg and oral (p.o.) administration of 20 mg/kg, respectively.
The vehicle used for i.v. administration was 10% HP-β-CD. The vehicle used for p.o. administration was 0.5% CMC-Na/0.1% Tween 80 in saline. Blood samples were collected at specified time-points following administration to individual rats within i.v. (pre-dose, 10 min, 0.5 h, 1 h, 2 h, 4 h, 6 h, 8 h, 12 h) and p.o. (pre-dose, 15 min, 0.5 h, 1 h, 2 h, 4 h, 8 h, 12 h, 24 h) group. Blood samples were clotted on ice immediately, plasma samples were then isolated by centrifugation and stored frozen (−80° C.) until further analysis. The concentrations of Compound I and CP-122721 were individually determined by LC/MS/MS assay. Various pharmacokinetic parameters were calculated using Phoenix™ WinNonlin® software. To quantify the bioconversion efficiency of the Compound I and CP-122721 in the circulation system, the bioavailability of Compound I and CP-122721 after p.o. administration was calculated.

Setting [7] is: 1 mg/kg p.o., day 2 (non-significant).
Where [8] appears, read: 1 mg/kg p.o., entire 72 h observation period.

Chain of human NK-2 receptor (NK-2/HEK293) (P21452 whole entry): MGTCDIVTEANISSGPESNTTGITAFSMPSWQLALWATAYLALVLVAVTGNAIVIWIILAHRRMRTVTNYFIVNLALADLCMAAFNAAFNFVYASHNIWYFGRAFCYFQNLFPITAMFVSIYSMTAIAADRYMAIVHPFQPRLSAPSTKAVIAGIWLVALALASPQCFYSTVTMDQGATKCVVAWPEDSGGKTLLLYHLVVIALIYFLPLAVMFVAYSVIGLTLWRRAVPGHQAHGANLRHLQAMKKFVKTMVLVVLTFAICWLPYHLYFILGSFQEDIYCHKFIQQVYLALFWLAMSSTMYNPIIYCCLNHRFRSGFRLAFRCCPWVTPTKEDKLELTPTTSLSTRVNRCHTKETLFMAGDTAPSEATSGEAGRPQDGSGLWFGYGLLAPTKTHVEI
Chain of human NK-1 receptor (NK-1/HEK293) (P25103 whole entry): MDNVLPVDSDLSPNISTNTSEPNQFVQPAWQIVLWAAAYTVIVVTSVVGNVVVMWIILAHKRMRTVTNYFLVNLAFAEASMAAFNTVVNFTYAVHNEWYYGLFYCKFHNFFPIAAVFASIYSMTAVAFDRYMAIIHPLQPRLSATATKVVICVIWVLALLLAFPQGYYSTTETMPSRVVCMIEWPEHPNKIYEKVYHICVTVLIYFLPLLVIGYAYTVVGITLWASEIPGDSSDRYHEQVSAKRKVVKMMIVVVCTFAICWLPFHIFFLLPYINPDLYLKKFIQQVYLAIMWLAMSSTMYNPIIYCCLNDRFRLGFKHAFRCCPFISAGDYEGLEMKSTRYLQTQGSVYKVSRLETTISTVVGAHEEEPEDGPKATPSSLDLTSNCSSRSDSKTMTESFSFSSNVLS
Chain of human NK-3 receptor (NK-3/HEK293) (P29371 whole entry): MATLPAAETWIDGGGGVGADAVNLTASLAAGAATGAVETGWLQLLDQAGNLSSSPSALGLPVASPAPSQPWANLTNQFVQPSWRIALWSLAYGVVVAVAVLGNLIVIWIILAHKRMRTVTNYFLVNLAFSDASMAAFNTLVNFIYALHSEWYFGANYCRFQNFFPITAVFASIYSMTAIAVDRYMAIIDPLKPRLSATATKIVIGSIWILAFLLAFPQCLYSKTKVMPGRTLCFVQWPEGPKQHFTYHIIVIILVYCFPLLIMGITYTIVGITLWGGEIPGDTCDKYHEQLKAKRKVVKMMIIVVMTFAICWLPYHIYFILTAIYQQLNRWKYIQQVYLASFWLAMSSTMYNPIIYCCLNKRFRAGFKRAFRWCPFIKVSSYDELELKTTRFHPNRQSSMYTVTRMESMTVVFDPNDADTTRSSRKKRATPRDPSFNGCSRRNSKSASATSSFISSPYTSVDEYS
Chain of human NK-1 receptor (P25103 whole entry): as the sequence (P25103 whole entry) above

For the compound `C[C@@H](O[C@H]1OCCN(Cc2n[nH]c(=O)[nH]2)[C@H]1c1ccc(F)cc1)c1cc(C(F)(F)F)cc(C(F)(F)F)c1` [aprepitant, reference compound], the “reduction of retches+vomits, overall combined acute and delayed response” value in data set [1] (1 mg/kg p.o., 0-72 h) is recorded as 67.4%. Also, the “reduction of retching+vomiting response” value in data set [1] (1 mg/kg p.o., day 1 (acute)) was 76.5%. Moreover, in data set [1] (setting [7]), the “reduction of retching+vomiting response” value is 46.7%. Besides, the “reduction of retching+vomiting response” value in data set [1] (1 mg/kg p.o., day 3) amounted to 73.3%. Also, the “reduction of retching+vomiting, entire delayed phase” value in data set [1] (1 mg/kg p.o.) was determined as 59.4%. In data set [1] (setting [8]), the “reduction of total number of episodes” value came out at 64.0%, the “reduction of total number of retches” value was determined as 67.9% and the “reduction of total number of vomits” value was 64.6%. The “superiority in reduction of retches+vomits over Compound I 0.1 mg/kg” value in data set [1] (aprepitant 1 mg/kg p.o. vs Compound I 0.1 mg/kg, 0-72 h) stood at 43.5%. Moreover, the “superiority in reduction of retches over Compound I 0.1 mg/kg” value in data set [1] (aprepitant 1 mg/kg p.o. vs Compound I 0.1 mg/kg, 72 h) is on record as 46%.

On to `[2H]C([2H])([2H])Oc1ccc(S(F)(F)(F)(F)F)cc1CN[C@H]1CCCN[C@H]1c1ccccc1` [Compound IV, (2S,3S)—N-(2-(methoxy-d3)-5-(pentafluorosulfanyl)benzyl)-2-phenylpiperidin-3-amine], for which the inhibition at 10 µM was 1% in data set [2], 29% in data set [3] and 101% in data set [4]. The half-inhibitory concentration (IC50) in data set [2] is greater than 10000 nM; in data set [3], greater than 10000 nM; in data set [4], 22.2 nM.

Take `COc1ccc(S(F)(F)(F)(F)F)cc1CN[C@H]1CCCN[C@H]1c1ccccc1` [Compound I, (2S,3S)—N-(2-methoxy-5-(pentafluorosulfanyl)benzyl)-2-phenylpiperidin-3-amine]: the IC50 in data set [5] was 0.64 nM; in data set [2] it was greater than 10000 nM; in data set [3], greater than 10000 nM; in data set [4], 6.15 nM. Moreover, the AUC(0-t) in data set [6] (iv, 4 mg/kg) is 663 ng·h/mL; in data set [6] (po, 20 mg/kg) it was 740 ng·h/mL. Besides, the half-life in data set [6] (iv, 4 mg/kg) was 1.84 h; in data set [6] (po, 20 mg/kg), 1.9 h. The compound further gave a bioavailability in data set [6] (oral, p.o. 20 mg/kg vs i.v. 4 mg/kg) of 22.4%. In data set [6] (po, 20 mg/kg), this compound displayed a Cmax of 202 ng/mL. In data set [6] (po, 20 mg/kg), the time of peak concentration (Tmax) turned out to be 1.4 h. Besides, the inhibition at 10 µM was 15% in data set [2], 26% in data set [3] and 102% in data set [4]. Also, the “reduction of retches+vomits, overall combined acute and delayed response” value came out at 23.9% in data set [1] (0.1 mg/kg p.o., 0-72 h) and 52.2% in data set [1] (1 mg/kg p.o., 0-72 h). For the same compound, in data set [1] (0.1 mg/kg p.o., entire 72 h observation period), the reduction of retches is on record as 21.9%. Besides, the “reduction of retching+vomiting response” value in data set [1] (1 mg/kg p.o., day 1 (acute)) was found to be 64.5%; in data set [1] (setting [7]) it was 22.7%; in data set [1] (1 mg/kg p.o., day 3) it was 67.5%. Besides, in data set [1] (1 mg/kg p.o.), the “reduction of retching+vomiting, entire delayed phase” value came to 41.3%. Moreover, the “reduction of total number of episodes” value in data set [1] (setting [8]) came out at 59.0%. In data set [1] (setting [8]), the “reduction of total number of retches” value turned out to be 51.3%. In addition, the “reduction of total number of vomits” value in data set [1] (setting [8]) stood at 57.3%.

What is called inhibition is the relative decrease from the control value, in per cent. In general, IC50 refers to the concentration at which inhibition is half-maximal. By AUC(0-t) is commonly meant exposure summed from dosing to a finite time, without extrapolation to infinity. A low value points to low exposure. In general, half-life refers to how long it takes for the measured level to halve. Lower therefore signals fast loss. A word on the bioavailability: it is the share of a dose that reaches the circulation, judged against a reference dose that is usually intravenous. Lower therefore signals poor availability. The Cmax is the highest concentration seen after dosing. In general, Tmax refers to the time from dosing to the highest level.
